Consider 14 molecules from patent US20090069320A1, “Substituted 4-Amino-Quinazoline Compounds with Metabotropic Glutamate Receptor Regulating Activity and Uses Thereof” (Gruenenthal GmbH, priority 2006, published 2009).

A word on the IC50: it is the midpoint of a concentration-inhibition curve. As a reminder, the inhibition is the change of the read-out against control, counted positive when it falls.

Counter-ions that a name gives are not always drawn.

For the first test, the target named is T1, mGluR5 receptor (Sus scrofa, UniProt I3LUI7).
T1 construct: 450 μg of protein from brain homogenate with 5 nM ^3[H]-MPEP; from tissue; host or cells: pig brain halves without medulla, cerebellum and pons
T1 sequence (I3LUI7 19-1212): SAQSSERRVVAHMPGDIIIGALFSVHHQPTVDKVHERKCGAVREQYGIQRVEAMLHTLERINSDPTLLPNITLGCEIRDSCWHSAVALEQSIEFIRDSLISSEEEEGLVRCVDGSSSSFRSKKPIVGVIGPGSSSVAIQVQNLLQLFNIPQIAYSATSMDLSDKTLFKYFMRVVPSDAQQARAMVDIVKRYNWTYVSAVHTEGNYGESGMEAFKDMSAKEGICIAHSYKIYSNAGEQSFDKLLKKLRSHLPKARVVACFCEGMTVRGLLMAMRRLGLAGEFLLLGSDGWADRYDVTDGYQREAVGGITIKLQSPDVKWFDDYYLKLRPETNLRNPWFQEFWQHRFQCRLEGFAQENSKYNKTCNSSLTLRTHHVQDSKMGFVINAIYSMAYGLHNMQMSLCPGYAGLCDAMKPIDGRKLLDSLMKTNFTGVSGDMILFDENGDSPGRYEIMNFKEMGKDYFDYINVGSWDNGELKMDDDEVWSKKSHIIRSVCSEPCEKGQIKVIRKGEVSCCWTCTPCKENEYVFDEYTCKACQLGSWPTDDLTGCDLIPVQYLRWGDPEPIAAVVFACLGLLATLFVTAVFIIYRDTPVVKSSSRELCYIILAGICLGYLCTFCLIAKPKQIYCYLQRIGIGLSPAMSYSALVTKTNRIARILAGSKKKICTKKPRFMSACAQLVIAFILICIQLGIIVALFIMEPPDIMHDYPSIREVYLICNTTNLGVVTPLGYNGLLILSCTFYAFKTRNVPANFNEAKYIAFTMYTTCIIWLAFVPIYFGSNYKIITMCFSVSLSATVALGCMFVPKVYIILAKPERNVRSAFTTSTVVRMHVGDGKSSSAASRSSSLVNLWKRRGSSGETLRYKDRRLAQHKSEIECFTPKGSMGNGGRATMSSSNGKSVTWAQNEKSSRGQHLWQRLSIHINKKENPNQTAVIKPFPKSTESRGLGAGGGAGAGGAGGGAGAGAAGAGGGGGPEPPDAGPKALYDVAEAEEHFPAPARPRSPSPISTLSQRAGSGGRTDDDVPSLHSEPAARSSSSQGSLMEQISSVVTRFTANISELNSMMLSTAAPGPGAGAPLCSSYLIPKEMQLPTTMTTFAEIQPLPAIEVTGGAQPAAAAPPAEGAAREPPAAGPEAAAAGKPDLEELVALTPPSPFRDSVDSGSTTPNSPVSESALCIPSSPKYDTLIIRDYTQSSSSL
The experiment in a line: [3H]-MPEP mGluR5 receptor binding assay (pig brain homogenate). The following applies: 5 nM [3H]-MPEP, read-out: IC50 mGluR5 Receptor (pig) [^3H]-MPEP Bond. The protocol:
I. Method for Determining the Inhibition of the [^3H]-MPEP Bond in the mGluR5 Receptor Binding Assay
Pig brain homogenate is produced by homogenizing (Polytron PT 3000, Kinematica AG, 10 000 rpm for 90 seconds) pig brain halves without medulla, cerebellum and pons in pH 8.0 buffer (20 mM Hepes, Sigma, order no. H3375+1 complete tablet, 100 ml, Roche Diagnostics, order no. 1836145) in the ratio of 1:20 (brain weight/volume) and differential centrifuging at 900×g and 40 000×g. In incubation batches of 250 μl in 96-well microtitre plates 450 μg of protein from brain homogenate with 5 nM ^3[H]-MPEP (Tocris, order no. R1212) (MPEP=[…]) and the compounds to be examined (10 μM in test) in buffer (as above) are respectively incubated at room temperature for 60 minutes.
The batches are then filtered using a Brandel cell harvester (Brandel, Robotic 9600) on unifilter plates with fibreglass filter mats (Perkin Elmer, order no. 6005177) and then washed with buffer (as above) 3-times each with 250 μl per sample. The filter plates are then dried for 60 mins. at 55° C. Then, 30 μL of Ultima Gold™ scintillator (Packard BioScience, order no. 6013159) are added per well and after 3 hours the samples are measured on the β-counter (MicroBeta, Perkin Elmer). The non-specific binding is determined by adding 10 μM of MPEP (Tocris, order no. 1212).
With `CC(C)(C)Nc1ncnc2ccc(-c3ccc(F)c(CNC4CC4)c3)cc12` [Example 322, N-tert-butyl-6-(3-((cyclopropylamino)methyl)-4-fluorophenyl)quinazoline-4-amine], the IC50 came to 2980 nM.
In the case of `O=C(c1ccccc1)N(Cc1cccc(-c2ccc3ncnc(NC4CC4)c3c2)c1)C1CC1` [Example 274, N-cyclopropyl-N-(3-(4-(cyclopropylamino)quinazolin-6-yl)benzyl)benzamide], the half-inhibitory concentration (IC50) came out at 860 nM.
On the same count and under the same terms, under `COCC(=O)N(Cc1cccc(-c2ccc3ncnc(NC4CC4)c3c2)c1)C1CC1` [Example 252, N-cyclopropyl-N-[3-(4-cyclopropylamino-quinazolin-6-yl)-benzyl]-2-methoxy-acetamide] stands 920 nM.

The test is the same for the next values; noted with them: 10 μM compound, 5 nM [3H]-MPEP.
For `CCCCC(=O)N(Cc1cc(-c2ccc3ncnc(NC(C)(C)C)c3c2)ccc1F)C1CC1` [Example 856, N-(5-(4-(tert-butylamino)quinazolin-6-yl)-2-fluorobenzyl)-N-cyclopropyl pentanamide], the “% Inhibition of mGluR5 Receptor (pig) [^3H]-MPEP Bond at 10 μM” value was found to be 89%.
Still for that read-out and setting: under `O=S(=O)(c1ccccc1)N(Cc1cc(-c2ccc3ncnc(NC4CC4)c3c2)ccn1)C1CC1` [Example 731, N-cyclopropyl-N-((4-(4-(cyclopropylamino)quinazolin-6-yl)pyridin-2-yl)methyl)benzole sulfonamide] stands 86%.

Still in this test, the particulars now being: 10 μM compound, 5 nM [3H]-MPEP, read-out: % Inhibition of mGluR5 Receptor (pig) [^3H]-MPEP Bond at 10 μM.
As for `O=C(c1ccc(Cl)cc1)N(Cc1cccc(-c2ccc3ncnc(NC4CC4)c3c2)c1)C1CC1` [Example 160, 4-chloro-N-cyclopropyl-N-[3-(4-cyclopropylamino-quinazolin-6-yl)-benzyl]-benzamide], the inhibition at 10 µM was found to be 70%.
`CCN(CC)c1ncnc2ccc(-c3cccc(CN(C)C(=O)C=Cc4ccccc4)c3)cc12` [Example 62, N-[3-(4-diethylamino-quinazolin-6-yl)-benzyl]-N-methyl-3-phenyl-acrylamide]: the inhibition at 10 µM stood at 43%.
Same read-out and setting: to `Cc1nc(NC2CC2)c2cc(-c3ccc(F)c(CN(C(=O)c4ccncc4)C4CC4)c3)ccc2n1` [Example 608, N-cyclopropyl-N-(5-(4-(cyclopropylamino)-2-methylquinazolin-6-yl)-2-fluorobenzyl)isonicotinamide] belongs 36%; to `Cc1nc(C(=O)N(Cc2cc(-c3ccc4ncnc(NC(C)(C)C)c4c3)ccc2F)C2CC2)cs1` [Example 825, N-(5-(4-(tert-butylamino)quinazolin-6-yl)-2-fluorobenzyl)-N-cyclopropyl-2-methylthiazole-4-carboxamide], 97%; to `CCCC(=O)N(CCC)Cc1cccc(-c2ccc3ncnc(Nc4ccccc4)c3c2)c1` [Example 115, N-[3-(4-phenylamino-quinazolin-6-yl)-benzyl]-N-propyl-butyramide], 50%.
Still for that read-out and setting: to `Cc1cc2ncnc(NC3CC3)c2cc1-c1cccc(CN(C(=O)c2cccs2)C2CC2)c1` [Example 698, N-cyclopropyl-N-(3-(4-(cyclopropylamino)-7-methylquinazolin-6-yl)benzyl)thiophene-2-carboxamide] belongs 89%; to `O=C(Cc1ccccc1)N(Cc1cc(-c2ccc3ncnc(NC4CC4)c3c2)ccc1F)C1CC1` [Example 406, N-cyclopropyl-N-(5-(4-(cyclopropylamino)quinazolin-6-yl)-2-fluorobenzyl)-2-phenylacetamide], 95%.
On the same count and under the same terms, to `O=S1(=O)CCCN1Cc1cccc(-c2ccc3ncnc(NC4CC4)c3c2)c1` [Example 206, cyclopropyl-{6-[3-(1,1-dioxo-1λ^6-isothiazolidin-2-ylmethyl)-phenyl]-quinazoline-4-yl}-amine; hydrochloride] belongs 34%; to `Cc1ccc(C(=O)N(Cc2cccc(-c3ccc4ncnc(N5CCOCC5)c4c3)c2)CC(C)C)cc1` [Example 22, N-isobutyl-4-methyl-N-[3-(4-morpholin-4-yl-quinazolin-6-yl)-benzyl]-benzamide], 32%.
